From patent publication US20250109140A1, “5-[5-(PIPERIDIN-4-YL)THIENO[3,2-C]PYRAZOL-2-YL]INDAZOLE DERIVATIVES AND RELATED COMPOUNDS AS MODULATORS FOR SPLICING NUCLEIC ACIDS AND FOR THE TREATMENT OF PROLIFERATIVE DISEASES” (REMIX THERAPUTICS INC., priority 2022, published 2025) come the findings set out here.

Read-outs that look alike come from different tables or passages of the source.

What all share (type): cell-based
In experiment [1] the test system is HTT mRNA. Description: Splicing RT-qPCR assay, HTT canonical (CJ) and alternative (AJ) junction mRNA. The conditions noted are these: Homo sapiens; for EC50: AC50 = 50% response in AJ mRNA increase. As for the experimental part: (§1) Compounds described herein were used to modulate RNA transcript abundance in cells. The expression of a target mRNA was measured by detecting the formation of an exon-exon junction in the canonical transcript (CJ). A compound mediated exon-inclusion event was detected by observing an increase in formation of a new junction with an alternative exon (AJ). Real-time qPCR assays were used to detect these splicing switches and interrogate the potency of various compounds towards different target genes. A high-throughput real time quantitative PCR (RT-qPCR) assay was developed to measure these two isoforms of the mRNA (CJ and AJ) for exemplary genes, such as HTT, SMN2, and MYB, together with a control housekeeping gene, GAPDH or GUSB or PPIA, used for normalization. Briefly, the A673 or K562 cell line was treated with various compounds described herein (e.g., compounds of Formula (I)). After treatment, the levels of the HTT, MYB, or SMN2 mRNA targets were determined from each sample of cell lysate by cDNA synthesis followed by qPCR.
(§2) The A673 cell line was cultured in DMEM with 10% FBS. Cells were diluted with full growth media and plated in a 96-well plate (15,000 cells in 100 ul media per well). The plate was incubated at 37° C. with 5% CO2 for 24 hours to allow cells to adhere. An 11-point 3-fold serial dilution of the compounds was made in DMSO then diluted in media in an intermediate plate. Compounds were transferred from the intermediate plate to the cell plate with the top dose at a final concentration of 10 uM in the well. Final DMSO concentration was kept at or below 0.25%. The cell plate was returned to the incubator at 37° C. with 5% CO2 for an additional 24 hours.
(§3) The K562 cell line was cultured in IMDM with 10% FBS. For K562, cells were diluted with full growth media and plated in either a 96-well plate (50,000 cells in 50 uL media per well) or a 384-well plate (8,000-40,000 cells in 45 uL media per well). An 11-point 3-fold serial dilution of the compounds were made in DMSO then diluted in media in an intermediate plate. Compound was transferred from the intermediate plate to the cell plate with the top dose at a final concentration of 10 uM in the well. Final DMSO concentration was kept at or below 0.25%. Final volume was 100 uL for 96-well plate and 50 uL for 384-well plate. The cell plate was then placed in an incubator at 37° C. with 5% CO2 for 24 hours.
(§4) The cells were then gently washed with 50 uL-100 uL cold PBS before proceeding to addition of lysis buffer. 30 uL-50 uL of room temperature lysis buffer with DNAse I (and optionally RNAsin) was added to each well. Cells were shaken/mixed thoroughly at room temperature for 5-10 minutes for lysis to take place and then 3 uL-5 uL of room temperature stop solution was added and wells were shaken/mixed again. After 2-5 minutes, the cell lysate plate was transferred to ice for RT-qPCR reaction setup. The lysates could also be frozen at-80° C. for later use.
(§5) In some cases, a direct lysis buffer was used. An appropriate volume of 3× lysis buffer (10 mM Tris, 150 mM NaCl, 1.5%-2.5% Igepal and 0.1-1 U/uL RNAsin, pH 7.4) was directly added to either K562 or A673 cells in media and mixed by pipetting 3 times. The plates were then incubated at room temperature with shaking/rocking for 20-50 minutes to allow for lysis to take place. After this time, the cell lysate plate was transferred to ice to set up for the RT-qPCR reactions. The lysates could also be frozen at −80° C. for later use.
(§6) To set up 10 uL RT-qPCR reactions, cell lysates were transferred to 384-well qPCR plates containing the master mix according to the table below. The plates were sealed, gently vortexed, and spun down before the run. The volumes were adjusted accordingly in some instances where the reaction was carried in 20 μL. The table below summarizes the components of the RT-qPCR reactions:
(§7) The RT-qPCR reaction was performed using a QuantStudio (ThermoFisher) under the following fast cycling conditions. […]
In general terms: Quantitative PCR measures a nucleic acid by following its amplification.

Experiment [2] concerns MYB mRNA. Put plainly: Splicing RT-qPCR assay, MYB canonical (CJ) and alternative (AJ) junction mRNA. The conditions noted are these: Homo sapiens; for EC50: AC50 = 50% response in AJ mRNA increase. As for the experimental part: as §1, §2, §3, §4, §5, §6, §7
Experiment [3] deals with SMN2 mRNA. Description: Splicing RT-qPCR gene panel, SMN2 canonical junction (CJ) mRNA. Conditions: Homo sapiens; Table 8; larger gene panel, decrease in CJ mRNA levels. As for the experimental part: as §1, §2, §3, §4, §5, §6, §7
Experiment [4] relates to Target C mRNA. Description: Splicing RT-qPCR gene panel, Target C canonical junction (CJ) mRNA. The conditions noted are these: Homo sapiens; Table 8; larger gene panel, decrease in CJ mRNA levels. As for the experimental part: as §1, §2, §3, §4, §5, §6, §7
Where [5] appears, read: Table 7, RT-qPCR, A673 or K562 cells, 24 hours treatment.
The mark [6] stands for this setting: Table 7, IC50 = 50% response in CJ mRNA decrease, RT-qPCR, A673 or K562 cells, 24 hours treatment, read-out: HTT CJ.
The mark [7] stands for this setting: Table 8, larger gene panel, decrease in CJ mRNA levels, read-out: HTT CJ IC50.
Where [8] appears, read: Table 7, IC50 = 50% response in CJ mRNA decrease, RT-qPCR, A673 or K562 cells, 24 hours treatment, read-out: MYB CJ.
Where [9] appears, read: Table 8, larger gene panel, decrease in CJ mRNA levels, read-out: MYB CJ IC50.

Usually EC50 stands for the concentration that produces a half-maximal response. Lower therefore signals greater potency.

As for `C[C@@H]1C[C@H](c2cc3sc(-c4cc(F)c5nn(C)cc5c4)nc3s2)CCN1` (single isomer, unassigned) [Compound 192, 7-fluoro-2-methyl-5-[5-(2-methylpiperidin-4-yl)thieno[2,3-d][1,3]thiazol-2-yl]indazole], the EC50 in experiment [1] (setting [5]) and in experiment [2] (setting [5]) was under 0.1 µM in each case. Moreover, the IC50 in experiment [1] (setting [6]), in experiment [1] (setting [7]), in experiment [2] (setting [8]), in experiment [2] (setting [9]), in experiment [3] and in experiment [4] was under 0.1 µM in each case.
As to `C[C@@H]1C[C@@H](c2cc3sc(-c4cc(F)c5nn(C)cc5c4)nc3s2)CCN1` (single isomer, unassigned) [Compound 193, 7-fluoro-2-methyl-5-[5-(2-methylpiperidin-4-yl)thieno[2,3-d][1,3]thiazol-2-yl]indazole], the EC50 in experiment [1] (setting [5]) and in experiment [2] (setting [5]) was under 0.1 µM each time. The IC50 in experiment [1] (setting [6]), in experiment [1] (setting [7]), in experiment [2] (setting [8]), in experiment [2] (setting [9]), in experiment [3] and in experiment [4] was under 0.1 µM each time.
With `Cc1cc(-c2cc3cn([C@@H]4CCNC[C@@H]4F)nc3s2)cc2cn(C)nc12` (single isomer, unassigned) [Compound 244], the figures for the EC50 in experiment [1] (setting [5]) and in experiment [2] (setting [5]) were 0.1 to 1 µM and 1 to 10 µM, respectively. Moreover, the IC50 in experiment [1] (setting [6]) is 0.1 to 1 µM; in experiment [1] (setting [7]), 0.1 to 1 µM; in experiment [2] (setting [8]), 0.1 to 1 µM; in experiment [2] (setting [9]), 0.1 to 1 µM; in experiment [3] it was under 0.1 µM; in experiment [4], 0.1 to 1 µM.
As to `Cc1cc(-c2cc3cn([C@H]4CCNC[C@H]4F)nc3s2)cc2cn(C)nc12` (single isomer, unassigned) [Compound 245], the EC50 in experiment [1] (setting [5]) was 0.1 to 1 µM; in experiment [2] (setting [5]) it was 1 to 10 µM. Besides, the IC50 was 0.1 to 1 µM in experiment [1] (setting [6]); 0.1 to 1 µM in experiment [1] (setting [7]); 1 to 10 µM in experiment [2] (setting [8]); 1 to 10 µM in experiment [2] (setting [9]); 0.1 to 1 µM in experiment [3]; 1 to 10 µM in experiment [4].
For the compound `C[C@@H]1C[C@@H](c2cc3sc(-c4cc(F)c5nn(C)cc5c4)nc3s2)CCN1` (stereo in doubt) [Compound 263, 7-fluoro-2-methyl-5-{5-[(2R,4S)-2-methylpiperidin-4-yl]thieno[2,3-d][1,3]thiazol-2-yl}indazole], the EC50 was under 0.1 µM in experiment [1] (setting [5]) and 0.1 to 1 µM in experiment [2] (setting [5]). Further, the IC50 is under 0.1 µM in experiment [1] (setting [6]); under 0.1 µM in experiment [1] (setting [7]); 0.1 to 1 µM in experiment [2] (setting [8]); 0.1 to 1 µM in experiment [2] (setting [9]); under 0.1 µM in experiment [3]; 0.1 to 1 µM in experiment [4].
For `Cn1cc2cc(-n3cc4sc(C5CCNCC5)cc4n3)ccc2n1` [Compound 100, 2-methyl-5-[5-(piperidin-4-yl)thieno[3,2-c]pyrazol-2-yl]indazole], the values for the concentration for a half-maximal effect (EC50) in experiment [1] (setting [5]) and in experiment [2] (setting [5]) were 1 to 10 µM and over 10 µM, respectively. Besides, the IC50 in experiment [1] (setting [7]) was 1 to 10 µM; in experiment [2] (setting [8]), over 10 µM; in experiment [2] (setting [9]), over 10 µM; in experiment [4] it was over 10 µM.
Regarding `Cn1cc2cc(-c3cn4nc(C5CCNCC5)nc4s3)cc(F)c2n1` [Compound 102, 7-fluoro-2-methyl-5-[2-(piperidin-4-yl)-[1,2,4]triazolo[3,2-b][1,3]thiazol-5-yl]indazole], the EC50 in experiment [1] (setting [5]) lay in the range of 0.1 to 1 µM; in experiment [2] (setting [5]) it was 1 to 10 µM. For the same compound, the IC50 in experiment [1] (setting [6]) is 0.1 to 1 µM; in experiment [1] (setting [7]), 0.1 to 1 µM; in experiment [2] (setting [8]) it was 0.1 to 1 µM; in experiment [2] (setting [9]) it was 1 to 10 µM; in experiment [3], under 0.1 µM; in experiment [4] it was 0.1 to 1 µM.
In the case of `Cn1cc2cc(-c3nc4sc(C5CCNCC5)cn4n3)cc(F)c2n1` [Compound 103, 7-fluoro-2-methyl-5-[5-(piperidin-4-yl)-[1,2,4]triazolo[3,2-b][1,3]thiazol-2-yl]indazole], the EC50 in experiment [1] (setting [5]) and in experiment [2] (setting [5]) was over 10 µM in each case. Also, the IC50 in experiment [1] (setting [6]), in experiment [1] (setting [7]), in experiment [2] (setting [8]), in experiment [2] (setting [9]), in experiment [3] and in experiment [4] was over 10 µM throughout.
As for `Cn1cc2cc(-c3nc4sc(C5CCNCC5)cc4s3)cc(F)c2n1` [Compound 106, 7-fluoro-2-methyl-5-[5-(piperidin-4-yl)thieno[2,3-d][1,3]thiazol-2-yl]indazole], the concentration giving a half-maximal response (EC50) in experiment [1] (setting [5]) and in experiment [2] (setting [5]) was under 0.1 µM each time. For the same compound, the IC50 in experiment [1] (setting [6]), in experiment [1] (setting [7]), in experiment [2] (setting [8]), in experiment [2] (setting [9]), in experiment [3] and in experiment [4] was under 0.1 µM each time.
`Cc1cn2nc(-c3nc4sc(C5CCNCC5)cc4s3)cc(C)c2n1` [Compound 112, 4-(2-[2,8-dimethylimidazo[1,2-b]pyridazin-6-yl]thieno[2,3-d][1,3]thiazol-5-yl)piperidine]: the 50% effective concentration (EC50) in experiment [1] (setting [5]) and in experiment [2] (setting [5]) was under 0.1 µM throughout. In addition, the IC50 in experiment [1] (setting [6]), in experiment [1] (setting [7]), in experiment [2] (setting [8]), in experiment [2] (setting [9]), in experiment [3] and in experiment [4] was under 0.1 µM throughout.
For `Cn1cc2cc(-c3cc4sc(C5CCNCC5)nc4s3)cc(F)c2n1` [Compound 124, 7-fluoro-2-methyl-5-[2-(piperidin-4-yl)thieno[2,3-d][1,3]thiazol-5-yl]indazole], the EC50 in experiment [1] (setting [5]) is under 0.1 µM; in experiment [2] (setting [5]) it was 0.1 to 1 µM. Also, the IC50 in experiment [1] (setting [6]) was 0.1 to 1 µM; in experiment [1] (setting [7]), under 0.1 µM; in experiment [2] (setting [8]) it was 0.1 to 1 µM; in experiment [2] (setting [9]), 0.1 to 1 µM; in experiment [3] it was under 0.1 µM; in experiment [4] it was 0.1 to 1 µM.
Turning to `Cc1cn2nc(-c3cc4sc(C5CCNCC5)nc4s3)cc(C)c2n1` [Compound 125, 4-(5-[2,8-dimethylimidazo[1,2-b]pyridazin-6-yl]thieno [2,3-d][1,3]thiazol-2-yl) piperidine], the EC50 in experiment [1] (setting [5]) and in experiment [2] (setting [5]) was 0.1 to 1 µM throughout. For the same compound, the IC50 in experiment [1] (setting [6]) was 0.1 to 1 µM; in experiment [1] (setting [7]) it was 0.1 to 1 µM; in experiment [2] (setting [8]), 1 to 10 µM; in experiment [2] (setting [9]), 0.1 to 1 µM; in experiment [3], 0.1 to 1 µM; in experiment [4], 1 to 10 µM.
On to `Cc1nc2c(F)cc(-c3nc4sc(C5CCNCC5)cc4s3)cc2s1` [Compound 126], for which the EC50 in experiment [1] (setting [5]) fell in the range of 0.1 to 1 µM; in experiment [2] (setting [5]) it was 1 to 10 µM. For the same compound, the IC50 in experiment [1] (setting [6]) lay within 0.1 to 1 µM; in experiment [1] (setting [7]) it was 0.1 to 1 µM; in experiment [2] (setting [8]), 1 to 10 µM; in experiment [2] (setting [9]) it was 1 to 10 µM; in experiment [3] it was 0.1 to 1 µM; in experiment [4], 1 to 10 µM.
